Data: US6596518B2, “Percyquinnin, a process for its production and its use as a pharmaceutical” (Aventis Pharma Deutschland GmbH, priority 2000, dated 2003)

Assay: Solubility (physico-chemical properties, Table 1)
Assay type: physicochemical
Conditions: solvents in which the compound is soluble

Q: Which Solubility does the source give for `CC(C)=CCC12C(=O)OC1CC=C2CO` (stereo not shown) [Percyquinnin] here?
A: Methanol, DMSO
